Reference: the C3SDB collision cross section collection
Values joined by “and” are separate entries in the source; they are usually repeats but may differ in a detail not shown here. Identical values can stand only once.

Conditions: instrument: DT, single field, calibrated with ESI Low Concentration Tuning Mix (Agilent)

Cc1cc2nc3c(=O)[nH]c(=O)nc-3n(C[C@H](O)[C@H](O)[C@H](O)COP(=O)(O)OP(=O)(O)OC[C@H]3O[C@@H](n4cnc5c(N)ncnc54)[C@H](O)[C@@H]3O)c2cc1C [FAD]
collision cross section (N2) ([M+H]+): 249 Å² | collision cross section (N2) ([M+Na-2H]-): 256.2 Å² | collision cross section (N2) ([M+Na]+): 250.3 Å² | collision cross section (N2) ([M-H]-): 238.7 Å²

COc1cc(/C=C/C(=O)O)ccc1O [FERULATE]
collision cross section (N2) ([M-H]-): 139.8 Å²

OCC1(O)OC[C@@H](O)[C@@H](O)[C@@H]1O (stereo partly specified) [FRUCTOSE]
collision cross section (N2) ([M+Na]+): 141.5 Å²

O=P(O)(O)O[C@H]1O[C@H](CO)[C@H](O)[C@H](O)[C@H]1O [GALACTOSE 1-PHOSPHATE]
collision cross section (N2) ([M+K]+): 158.5 Å² | collision cross section (N2) ([M+Na]+): 157.7 Å² | collision cross section (N2) ([M-H]-): 148.2 Å²

OC[C@H]1OC(O)[C@H](O)[C@@H](O)[C@H]1O (stereo partly specified) [GALACTOSE]
collision cross section (N2) ([M+Na]+): 141.9 Å²

O=C(O)[C@H]1O[C@H](O)[C@H](O)[C@@H](O)[C@H]1O [GALACTURONATE]
collision cross section (N2) ([M+Na]+): 145.3 Å² | collision cross section (N2) ([M-H]-): 131.3 Å²

CCCCC/C=C\C/C=C\C/C=C\CCCCC(=O)[O-] [GAMMA-LINOLENATE]
collision cross section (N2) ([M-H]-): 174.8 Å²

CC(C)=CCC/C(C)=C/COP(=O)(O)OP(=O)(O)O [GERANYL-PP]
collision cross section (N2) ([M+Na-2H]-): 173.8 Å² | collision cross section (N2) ([M-H]-): 167.2 Å²

N[C@@H](C(=O)O)[C@@H](O)[C@H](O)[C@H](O)CO [GLUCOSAMINATE]
collision cross section (N2) ([M+H]+): 141.8 Å² | collision cross section (N2) ([M+Na]+): 146.5 Å² | collision cross section (N2) ([M-H]-): 135.7 Å²

N[C@@H]1[C@@H](O)[C@H](O)[C@@H](COP(=O)(O)O)O[C@@H]1O [GLUCOSAMINE 6-PHOSPHATE]
collision cross section (N2) ([M-H]-): 148.1 Å²

O=C(O)[C@H]1OC(O)[C@H](O)[C@@H](O)[C@@H]1O (stereo partly specified) [GLUCURONATE]
collision cross section (N2) ([M+Na]+): 150.2 Å² | collision cross section (N2) ([M-H]-): 131.7 Å²

O=C(O)CCCC(=O)O [GLUTARATE]
collision cross section (N2) ([M+Na-2H]-): 129 Å² and 129.1 Å² | collision cross section (N2) ([M-H]-): 121.3 Å² and 121.4 Å²

O=C(O)[C@H](O)CO [GLYCERATE]
collision cross section (N2) ([M-H]-): 112.6 Å²

CCCCCCCCCCCCCC(=O)OCC(COC(=O)CCCCCCCCCCCCC)OC(=O)CCCCCCCCCCCCC [GLYCERYL TRIMYRISTATE]
collision cross section (N2) ([M+Na]+): 291.4 Å²

Nc1nc(=O)c2[nH]cnc2[nH]1 [GUANINE]
collision cross section (N2) ([M+K]+): 136 Å² | collision cross section (N2) ([M+Na]+): 137.8 Å²

Nc1nc(=O)c2ncn([C@@H]3O[C@H](COP(=O)(O)O)[C@@H](O)[C@H]3O)c2[nH]1 [GUANOSINE MONOPHOSPHATE]
collision cross section (N2) ([M+H]+): 179.5 Å² | collision cross section (N2) ([M+Na-2H]-): 172.1 Å² | collision cross section (N2) ([M+Na]+): 174.3 Å² | collision cross section (N2) ([M-H]-): 169.4 Å²

CCCCCCCCCCCCCCCCC(=O)[O-] [HEPTADECANOATE]
collision cross section (N2) ([M-H]-): 172.9 Å²

O=C(O)Cc1cc(O)ccc1O [HOMOGENTISATE]
collision cross section (N2) ([M-H]-): 132.4 Å²

NCCS(=O)O [HYPOTAURINE]
collision cross section (N2) ([M+H]+): 125.4 Å² | collision cross section (N2) ([M-H]-): 132.6 Å²

NC(=O)Cc1c[nH]c2ccccc12 [INDOLE-3-ACETAMIDE]
collision cross section (N2) ([M+H]+): 137 Å² | collision cross section (N2) ([M+Na]+): 143.4 Å² | collision cross section (N2) ([M-H]-): 135.5 Å²

OCCc1c[nH]c2ccccc12 [INDOLE-3-ETHANOL]
collision cross section (N2) ([M+H]+): 133.6 Å² | collision cross section (N2) ([M-H]-): 132.6 Å²

COC(=O)Cc1c[nH]c2ccccc12 [INDOLE-3-METHYL ACETATE]
collision cross section (N2) ([M+H]+): 138.7 Å² | collision cross section (N2) ([M+Na]+): 147.2 Å² | collision cross section (N2) ([M-H]-): 141.1 Å²

O=C(O)C(=O)Cc1c[nH]c2ccccc12 [INDOLE-3-PYRUVATE]
collision cross section (N2) ([M-H]-): 137.6 Å²

O=CCc1c[nH]c2ccccc12 [INDOLEACETALDEHYDE]
collision cross section (N2) ([M+H]+): 132.3 Å² | collision cross section (N2) ([M-H]-): 130.7 Å²

CC[C@H](C)[C@H](N)C(=O)O [ISOLEUCINE]
collision cross section (N2) ([M+H]+): 133 Å² | collision cross section (N2) ([M-H]-): 129.3 Å²

O=C1O[C@H]([C@@H](O)CO)[C@H](O)[C@@H]1O [L-GULONOLACTONE]
collision cross section (N2) ([M+H2O-H]-): 133.5 Å² | collision cross section (N2) ([M+Na]+): 140.8 Å² | collision cross section (N2) ([M-H]-): 129.6 Å²

NC(=O)[C@@H](N)Cc1c[nH]c2ccccc12 [L-TRYPTOPHANAMIDE]
collision cross section (N2) ([M+H]+): 150.5 Å² | collision cross section (N2) ([M+Na]+): 147.7 Å² | collision cross section (N2) ([M-H]-): 143.3 Å²

CCCCCCCCCCCC(=O)O[C@H](CC(=O)[O-])C[N+](C)(C)C [LAUROYLCARNITINE]
collision cross section (N2) ([M+H]+): 199 Å² | collision cross section (N2) ([M+Na]+): 209.4 Å²

Cc1cc2nc3[nH]c(=O)[nH]c(=O)c3nc2cc1C [LUMICHROME]
collision cross section (N2) ([M+H20-H]-): 160.2 Å² | collision cross section (N2) ([M+H]+): 153.1 Å² | collision cross section (N2) ([M+Na]+): 167.7 Å² | collision cross section (N2) ([M-H]-): 155.1 Å²

O=P(O)(O)OC[C@H]1OC(O)[C@@H](O)[C@@H](O)[C@@H]1O (stereo partly specified) [MANNOSE 6-PHOSPHATE]
collision cross section (N2) ([M+Na-2H]-): 156.7 Å² | collision cross section (N2) ([M+Na]+): 156.1 Å² | collision cross section (N2) ([M-H]-): 146.2 Å²

CS(=N)(=O)CCC(N)C(=O)O (stereo unspecified) [METHIONINE SULFOXIMINE]
collision cross section (N2) ([M+H]+): 136.9 Å² | collision cross section (N2) ([M+Na]+): 138.1 Å² | collision cross section (N2) ([M-H]-): 136.2 Å²

CSCC[C@H](N)C(=O)O [METHIONINE]
collision cross section (N2) ([M+H]+): 133.1 Å² | collision cross section (N2) ([M-H]-): 132 Å²

COC(=O)CCCN [METHYL 4-AMINOBUTYRATE]
collision cross section (N2) ([M+H]+): 124.6 Å²

CO[C@@H]1O[C@H](CO)[C@H](O)[C@H](O)[C@H]1O [METHYL GALACTOSIDE]
collision cross section (N2) ([M+Na]+): 145.4 Å²

CC(C)=CCNc1ncnc2nc[nH]c12 [N6-(DELTA2-ISOPENTENYL)-ADENINE]
collision cross section (N2) ([M+H]+): 145.5 Å² | collision cross section (N2) ([M-H]-): 150.5 Å²

CN(C)C(N)=NCCC[C@H](N)C(=O)O [N,N-DIMETHYLARGININE]
collision cross section (N2) ([M+H]+): 143.9 Å² | collision cross section (N2) ([M+Na]+): 157.2 Å²

CC(=O)N[C@@H](C)C(=O)O [N-ACETYLALANINE]
collision cross section (N2) ([M+Na]+): 134.7 Å²

CC(=O)N[C@@H]1[C@@H](O)[C@@H](O)[C@@H](CO)O[C@@H]1O [N-ACETYLGALACTOSAMINE]
collision cross section (N2) ([M+K]+): 151.4 Å² | collision cross section (N2) ([M+Na]+): 150.3 Å²

CC(=O)N[C@@H]1[C@@H](O)[C@H](O)[C@@H](CO)O[C@H]1O [N-ACETYLGLUCOSAMINE]
collision cross section (N2) ([M+Na]+): 150.7 Å² and 157.8 Å² | collision cross section (N2) ([M-H]-): 152.5 Å²

CC(=O)N[C@@H]1C(O)O[C@H](CO)[C@@H](O)[C@@H]1O (stereo partly specified) [N-ACETYLMANNOSAMINE]
collision cross section (N2) ([M+Na]+): 150.2 Å²

CC(=O)NCCCCN [N-ACETYLPUTRESCINE]
collision cross section (N2) ([M+H]+): 128.6 Å² | collision cross section (N2) ([M+Na]+): 134.5 Å²

CC(=O)N[C@@H](CO)C(=O)O [N-ACETYLSERINE]
collision cross section (N2) ([M+Na]+): 133.4 Å² | collision cross section (N2) ([M-H]-): 127.2 Å²

CC(=O)NCCc1c[nH]c2ccc(O)cc12 [N-ACETYLSEROTONIN]
collision cross section (N2) ([M+H]+): 149.6 Å² | collision cross section (N2) ([M+Na]+): 153.5 Å² | collision cross section (N2) ([M-H]-): 150.5 Å²

CC(=O)NC(Cc1c[nH]c2ccccc12)C(=O)O (stereo unspecified) [N-ACETYLTRYPTOPHAN]
collision cross section (N2) ([M+H]+): 153.8 Å² | collision cross section (N2) ([M+Na]+): 158.5 Å² | collision cross section (N2) ([M-H]-): 158.3 Å²

CC(=O)NC(CCCCN)C(=O)O (stereo not drawn) [N-ALPHA-ACETYLLYSINE]
collision cross section (N2) ([M+H]+): 145.5 Å² | collision cross section (N2) ([M+Na]+): 144.4 Å² | collision cross section (N2) ([M-H]-): 145 Å²

CN[C@H](CC(=O)O)C(=O)O [N-METHYLASPARTATE]
collision cross section (N2) ([M+H]+): 130 Å² | collision cross section (N2) ([M+Na]+): 134.7 Å² | collision cross section (N2) ([M-H]-): 124 Å²

NC(=O)c1ccc[n+]([C@@H]2O[C@H](COP(=O)(O)OP(=O)(O)OC[C@H]3O[C@@H](n4cnc5c(=O)nc[nH]c54)[C@H](O)[C@@H]3O)[C@@H](O)[C@H]2O)c1 [NICOTINAMIDE HYPOXANTHINE DINUCLEOTIDE]
collision cross section (N2) ([M+H]+): 221.1 Å² | collision cross section (N2) ([M+Na-2H]-): 217.2 Å² | collision cross section (N2) ([M+Na]+): 229.7 Å² | collision cross section (N2) ([M-H]-): 217.7 Å²

CCC[C@H](N)C(=O)O [NORVALINE]
collision cross section (N2) ([M+H]+): 120.9 Å² | collision cross section (N2) ([M+Na]+): 133.1 Å² | collision cross section (N2) ([M-H]-): 142 Å²

CC[C@H](NC(=O)CC[C@H]([NH3+])C(=O)[O-])C(=O)NCC(=O)[O-] [OPHTHALMATE]
collision cross section (N2) ([M+H]+): 164.5 Å² | collision cross section (N2) ([M+Na-2H]-): 163.7 Å² | collision cross section (N2) ([M+Na]+): 163.4 Å² | collision cross section (N2) ([M-H]-): 160.9 Å²

O=C([O-])c1cc(=O)[nH]c(=O)[nH]1 [OROTATE]
collision cross section (N2) ([M-H]-): 121.5 Å²

O=C1CC[C@@H](C(=O)O)N1 [OXOPROLINE]
collision cross section (N2) ([M+H]+): 130.3 Å² | collision cross section (N2) ([M-H]-): 124.1 Å²

O=C(O)Cc1ccc(O)cc1 [P-HYDROXYPHENYLACETATE]
collision cross section (N2) ([M-H]-): 128.6 Å²

OC[C@H]1O[C@H](OC[C@H]2OC(O)(CO)[C@@H](O)[C@@H]2O)[C@H](O)[C@@H](O)[C@@H]1O (stereo partly specified) [PALATINOSE]
collision cross section (N2) ([M+K]+): 177.6 Å² | collision cross section (N2) ([M+Na]+): 176 Å² | collision cross section (N2) ([M-H]-): 177.9 Å²

N[C@@H](Cc1ccccc1)C(=O)O [PHENYLALANINE]
collision cross section (N2) ([M+Na]+): 138.3 Å² | collision cross section (N2) ([M-H]-): 139.4 Å²

Cc1ncc(CO)c(CN)c1O [PYRIDOXAMINE]
collision cross section (N2) ([M+H]+): 133.7 Å² | collision cross section (N2) ([M+Na]+): 144.1 Å² | collision cross section (N2) ([M-H]-): 133.9 Å²

Oc1ccccc1O [PYROCATECHOL]
collision cross section (N2) ([M-H]-): 114.5 Å²

O=C1CC[C@@H](C(=O)O)N1 [PYROGLUTAMATE]
collision cross section (N2) ([M+H]+): 130.1 Å²
